Measurements: patent US20150307520A1, “NOVEL HETEROARYL AND HETEROCYCLE COMPOUNDS, COMPOSITIONS AND METHODS THEREOF” (HUTCHISON MEDIPHARMA LIMITED, priority 2012, published 2015)

Legend:
Type in all cases: biochemical
[1] = molecular target: p110β/p85α (Homo sapiens, UniProt P42338); experiment: Transcreener KINASE Assay, kinase inhibition of p110β/p85α; conditions: for PI3Kβ IH % @ 1 uM: 1 uM test compound; for IC50: read-out: PI3Kβ IC50
How it was run: (§1)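 ADP formation read by far-red competitive FP immunoassay (60 min RT detection step) after an 80 min RT kinase reaction; substrate added as a 30 uM PIP2/10 uM ATP solution (not final).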

[2] = molecular target: p110δ/p85α (Homo sapiens, UniProt O00329); experiment: Transcreener KINASE Assay, kinase inhibition of p110δ/p85α; conditions: for PI3Kδ IH % @ 1 uM: 1 uM test compound; for IC50: read-out: PI3Kδ IC50
Sequence of p110δ/p85α (O00329 whole entry): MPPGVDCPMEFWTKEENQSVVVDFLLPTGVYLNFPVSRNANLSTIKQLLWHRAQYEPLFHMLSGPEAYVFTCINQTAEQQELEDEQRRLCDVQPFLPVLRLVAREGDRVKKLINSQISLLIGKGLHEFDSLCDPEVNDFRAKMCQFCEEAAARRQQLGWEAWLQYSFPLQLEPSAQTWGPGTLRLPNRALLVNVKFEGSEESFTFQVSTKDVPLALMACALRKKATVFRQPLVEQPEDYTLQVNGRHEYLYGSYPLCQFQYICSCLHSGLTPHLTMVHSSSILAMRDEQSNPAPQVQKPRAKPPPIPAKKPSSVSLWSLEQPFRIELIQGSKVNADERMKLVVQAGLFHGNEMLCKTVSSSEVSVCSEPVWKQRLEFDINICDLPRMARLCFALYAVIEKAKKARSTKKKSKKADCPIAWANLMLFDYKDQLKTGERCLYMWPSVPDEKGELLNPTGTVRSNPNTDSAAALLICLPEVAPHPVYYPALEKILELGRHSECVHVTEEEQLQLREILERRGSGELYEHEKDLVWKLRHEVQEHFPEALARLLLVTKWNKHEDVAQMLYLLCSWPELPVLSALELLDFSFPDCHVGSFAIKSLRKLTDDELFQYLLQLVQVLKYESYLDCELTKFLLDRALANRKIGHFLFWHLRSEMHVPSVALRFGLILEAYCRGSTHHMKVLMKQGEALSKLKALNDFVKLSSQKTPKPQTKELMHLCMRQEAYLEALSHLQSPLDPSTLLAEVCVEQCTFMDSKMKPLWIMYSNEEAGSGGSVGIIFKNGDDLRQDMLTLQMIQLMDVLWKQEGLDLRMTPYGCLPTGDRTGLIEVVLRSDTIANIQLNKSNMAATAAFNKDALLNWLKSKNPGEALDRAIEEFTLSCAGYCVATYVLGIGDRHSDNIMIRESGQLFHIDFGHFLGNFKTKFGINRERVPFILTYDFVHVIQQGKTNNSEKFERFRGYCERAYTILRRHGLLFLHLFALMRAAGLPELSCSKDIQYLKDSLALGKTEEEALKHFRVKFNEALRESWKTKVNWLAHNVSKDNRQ
Sequence of p110δ/p85α (P27986 whole entry partner): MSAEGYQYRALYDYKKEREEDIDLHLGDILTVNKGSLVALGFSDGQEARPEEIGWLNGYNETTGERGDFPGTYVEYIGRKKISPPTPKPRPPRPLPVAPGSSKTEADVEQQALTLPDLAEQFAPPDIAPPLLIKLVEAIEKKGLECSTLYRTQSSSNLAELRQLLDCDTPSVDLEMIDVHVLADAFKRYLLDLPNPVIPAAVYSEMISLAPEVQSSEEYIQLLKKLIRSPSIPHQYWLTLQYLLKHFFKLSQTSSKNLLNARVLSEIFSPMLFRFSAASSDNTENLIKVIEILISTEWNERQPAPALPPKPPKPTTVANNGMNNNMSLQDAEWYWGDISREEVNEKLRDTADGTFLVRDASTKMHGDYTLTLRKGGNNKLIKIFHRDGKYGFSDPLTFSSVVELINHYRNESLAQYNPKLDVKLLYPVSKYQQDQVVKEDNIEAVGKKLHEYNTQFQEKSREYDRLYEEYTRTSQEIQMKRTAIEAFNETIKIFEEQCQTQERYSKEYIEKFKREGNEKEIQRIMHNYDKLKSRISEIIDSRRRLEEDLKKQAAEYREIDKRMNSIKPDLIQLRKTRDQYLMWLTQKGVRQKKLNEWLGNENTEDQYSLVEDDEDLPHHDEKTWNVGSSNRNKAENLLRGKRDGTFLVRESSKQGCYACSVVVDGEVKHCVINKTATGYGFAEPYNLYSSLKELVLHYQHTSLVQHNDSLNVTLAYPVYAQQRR
How it was run: as §1

[3] = molecular target: p110γ (Homo sapiens, UniProt P48736); experiment: Transcreener KINASE Assay, kinase inhibition of p110γ; conditions: for PI3Kγ IH % @ 1 uM: 1 uM test compound; for IC50: read-out: PI3Kγ IC50
Sequence of p110γ (P48736 whole entry): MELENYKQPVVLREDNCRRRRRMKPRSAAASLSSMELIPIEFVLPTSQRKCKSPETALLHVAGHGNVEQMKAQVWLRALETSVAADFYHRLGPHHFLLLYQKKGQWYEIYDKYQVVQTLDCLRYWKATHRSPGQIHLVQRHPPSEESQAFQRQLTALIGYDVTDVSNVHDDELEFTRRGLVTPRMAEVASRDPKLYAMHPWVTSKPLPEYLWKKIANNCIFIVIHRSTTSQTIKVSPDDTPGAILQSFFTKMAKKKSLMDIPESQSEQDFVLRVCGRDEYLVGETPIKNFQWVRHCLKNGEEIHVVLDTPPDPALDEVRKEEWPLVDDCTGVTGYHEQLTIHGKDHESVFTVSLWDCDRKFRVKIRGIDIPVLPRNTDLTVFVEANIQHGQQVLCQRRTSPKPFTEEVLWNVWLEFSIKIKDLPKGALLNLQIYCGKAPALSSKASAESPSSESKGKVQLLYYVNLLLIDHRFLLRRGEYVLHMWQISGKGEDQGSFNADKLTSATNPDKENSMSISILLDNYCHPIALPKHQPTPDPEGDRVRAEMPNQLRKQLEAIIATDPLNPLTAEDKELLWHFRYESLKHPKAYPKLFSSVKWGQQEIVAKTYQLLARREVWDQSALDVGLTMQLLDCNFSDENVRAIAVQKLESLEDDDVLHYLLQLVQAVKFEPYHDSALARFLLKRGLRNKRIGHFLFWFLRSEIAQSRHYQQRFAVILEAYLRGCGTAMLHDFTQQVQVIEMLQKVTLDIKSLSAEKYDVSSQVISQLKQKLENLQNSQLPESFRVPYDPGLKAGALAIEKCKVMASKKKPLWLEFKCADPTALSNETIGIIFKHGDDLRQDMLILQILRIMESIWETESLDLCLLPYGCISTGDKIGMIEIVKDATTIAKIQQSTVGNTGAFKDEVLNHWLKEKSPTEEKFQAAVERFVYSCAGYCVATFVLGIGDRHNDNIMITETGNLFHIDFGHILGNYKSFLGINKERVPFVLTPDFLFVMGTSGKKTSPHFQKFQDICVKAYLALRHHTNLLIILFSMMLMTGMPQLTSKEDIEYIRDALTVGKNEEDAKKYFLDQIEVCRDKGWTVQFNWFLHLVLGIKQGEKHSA
How it was run: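 FP read-out: far-red competitive immunoassay sensing ADP produced by recombinant p110/p85 or p110γ enzyme. Reaction 80 min RT, then detection mix 60 min RT. IC50 from curve fit.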

Sequence of p110β/p85α (P42338 whole entry): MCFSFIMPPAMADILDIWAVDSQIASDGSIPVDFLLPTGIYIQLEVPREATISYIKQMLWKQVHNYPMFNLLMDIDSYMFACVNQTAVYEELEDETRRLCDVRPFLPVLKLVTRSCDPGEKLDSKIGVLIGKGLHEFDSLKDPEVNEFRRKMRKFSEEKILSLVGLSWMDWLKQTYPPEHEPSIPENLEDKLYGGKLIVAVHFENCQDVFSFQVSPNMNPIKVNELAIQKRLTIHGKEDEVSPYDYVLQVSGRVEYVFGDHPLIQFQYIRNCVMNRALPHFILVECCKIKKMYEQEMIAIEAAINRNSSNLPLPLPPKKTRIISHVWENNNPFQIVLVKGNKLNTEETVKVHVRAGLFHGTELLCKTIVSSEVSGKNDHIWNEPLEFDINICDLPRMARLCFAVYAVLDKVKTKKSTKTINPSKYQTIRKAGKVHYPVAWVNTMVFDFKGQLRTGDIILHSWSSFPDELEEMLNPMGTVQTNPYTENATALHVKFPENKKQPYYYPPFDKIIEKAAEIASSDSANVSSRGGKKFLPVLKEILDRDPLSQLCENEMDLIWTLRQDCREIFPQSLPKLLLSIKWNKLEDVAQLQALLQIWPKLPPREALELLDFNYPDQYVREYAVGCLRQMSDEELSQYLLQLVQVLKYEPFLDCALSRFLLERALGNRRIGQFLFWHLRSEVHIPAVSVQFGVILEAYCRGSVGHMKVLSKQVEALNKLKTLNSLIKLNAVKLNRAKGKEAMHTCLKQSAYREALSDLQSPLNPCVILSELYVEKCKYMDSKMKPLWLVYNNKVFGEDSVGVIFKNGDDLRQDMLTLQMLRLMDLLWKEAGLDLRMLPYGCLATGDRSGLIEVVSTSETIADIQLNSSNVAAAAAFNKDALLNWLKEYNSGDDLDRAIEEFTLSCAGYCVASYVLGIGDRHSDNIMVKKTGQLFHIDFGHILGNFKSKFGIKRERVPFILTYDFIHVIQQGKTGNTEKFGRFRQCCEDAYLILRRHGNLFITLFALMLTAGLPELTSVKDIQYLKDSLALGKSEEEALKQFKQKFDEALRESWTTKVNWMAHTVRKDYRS
Sequence of p110β/p85α (P27986 2-724 partner): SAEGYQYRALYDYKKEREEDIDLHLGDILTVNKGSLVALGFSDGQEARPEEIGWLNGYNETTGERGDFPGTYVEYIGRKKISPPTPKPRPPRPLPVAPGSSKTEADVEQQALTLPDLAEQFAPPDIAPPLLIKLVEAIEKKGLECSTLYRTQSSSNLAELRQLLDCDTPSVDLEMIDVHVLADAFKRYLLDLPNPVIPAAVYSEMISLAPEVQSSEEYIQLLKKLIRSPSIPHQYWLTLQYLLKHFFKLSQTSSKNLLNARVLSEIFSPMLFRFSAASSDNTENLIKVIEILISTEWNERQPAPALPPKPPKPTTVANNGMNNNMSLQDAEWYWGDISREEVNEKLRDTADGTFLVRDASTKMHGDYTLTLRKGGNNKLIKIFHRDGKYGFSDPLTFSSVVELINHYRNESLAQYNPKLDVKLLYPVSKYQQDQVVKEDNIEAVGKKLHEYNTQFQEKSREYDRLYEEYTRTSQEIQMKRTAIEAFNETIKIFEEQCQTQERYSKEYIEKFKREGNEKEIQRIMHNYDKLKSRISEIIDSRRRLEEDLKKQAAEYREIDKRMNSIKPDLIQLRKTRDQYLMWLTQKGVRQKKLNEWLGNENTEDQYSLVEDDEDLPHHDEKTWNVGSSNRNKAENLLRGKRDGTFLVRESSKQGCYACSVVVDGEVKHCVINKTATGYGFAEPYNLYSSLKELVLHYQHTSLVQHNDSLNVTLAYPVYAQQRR

| SMILES | PI3Kβ IH % @ 1 uM [1] | PI3Kδ IH % @ 1 uM [2] | IC50 [2] | PI3Kγ IH % @ 1 uM [3] | IC50 [3] | IC50 [1] |
| --- | --- | --- | --- | --- | --- | --- |
| O=c1c2c(Cl)ccn2nc([C@@H]2CCCN2c2ncnc3[nH]cc(F)c23)n1-c1ccccc1 [Compound 147] | 65.3% | >100% | 1 nM | 94.3% | 4 nM |  |
| O=c1c2c(Cl)ccn2nc([C@@H]2CCN2c2ncnc3[nH]cc(F)c23)n1-c1ccccc1 [Compound 148] | 19.5% | 86.7% | 44 nM | 83.0% | 173 nM |  |
| COCc1ccn2nc([C@@H]3CCCN3c3ncnc4[nH]cnc34)n(-c3ccccc3)c(=O)c12 [Compound 149] | −35.9% | 95.9% | 52 nM | 74.2% | 348 nM |  |
| COCc1ccn2nc([C@@H]3CCCN3c3ncnc4[nH]cc(C#N)c34)n(-c3ccccc3)c(=O)c12 [Compound 150] | 31.5% | >100% | 3 nM | 92.6% | 92 nM |  |
| COCc1ccn2nc([C@@H]3CCCN3c3nc(N)ncc3C(F)(F)F)n(-c3ccccc3)c(=O)c12 [Compound 151] | 11.4% | 52.4% |  | 22.8% |  |  |
| N#Cc1c[nH]c2ncnc(N3CCOCC3c3nn4ccc(Cl)c4c(=O)n3-c3ccccc3)c12 (stereo not shown) [Compound 152] | 54.4% | 99.2% | 5 nM | 79.3% | 287 nM |  |
| O=c1c2c(Cl)ccn2nc([C@@H]2COCCN2c2ncnc3[nH]cnc23)n1-c1ccccc1 [Compound 153] | 56.5% | >100% |  | 85.8% |  |  |
| CC(Nc1nc(N)ncc1C(F)(F)F)c1cc2ncc(Cl)n2c(=O)n1-c1ccccc1 (stereo not shown) [Compound 154] | 56.7% | 97.6% | 3 nM | 93.7% | 40 nM |  |
| N#Cc1c[nH]c2ncnc(N3CCC[C@H]3c3nn4ccc(Cl)c4c(=O)n3Cc3ncccn3)c12 [Compound 155] | 56.0% | 96.4% | 23 nM | 94.9% | 133 nM |  |
| O=c1c2c(Cl)ccn2nc([C@@H]2CCCN2c2ncnc3[nH]cnc23)n1Cc1ncccn1 [Compound 156] | 42.2% | 83.4% | 169 nM | 64.0% |  |  |
| O=c1c2c(Cl)ccn2nc([C@@H]2C[C@H](F)CN2c2ncnc3[nH]cnc23)n1Cc1ccccn1 [Compound 157] | 39.5% | >100% | 21 nM | 79.9% | 280 nM |  |
| N#Cc1c[nH]c2ncnc(N3C[C@@H](F)C[C@H]3c3nn4ccc(Cl)c4c(=O)n3Cc3ccccn3)c12 [Compound 158] | 71.1% | >100% | 6 nM | >100% | 46 nM | 473 nM |
| N#Cc1c[nH]c2ncnc(N3CC(F)(F)C[C@H]3c3nn4ccc(Cl)c4c(=O)n3Cc3ccccn3)c12 [Compound 160] | 11.4% | 80.2% | 140 nM | 34.3% |  |  |
| O=c1c2c(Cl)ccn2nc([C@@H]2CC(F)(F)CN2c2ncnc3[nH]cnc23)n1Cc1ncccn1 [Compound 161] | 15.3% | 45.7% |  | −8.4% |  |  |
| N#Cc1c[nH]c2ncnc(N3CCC[C@H]3c3nn4ccc(Cl)c4c(=O)n3C3CCC3)c12 [Compound 162] | 83.2% | >100% | 1 nM | 97.7% | 6 nM | 137 nM |
| NC(=O)c1c[nH]c2ncnc(N3CC[C@H]3c3nn4ccc(Cl)c4c(=O)n3-c3ccccc3)c12 [Compound 163] | −3.2% | 31.3% |  | 0.6% |  |  |
| O=C(c1c[nH]c2ncnc(N3CCC[C@H]3c3nn4ccc(Cl)c4c(=O)n3-c3ccccc3)c12)N1CCOCC1 [Compound 164] | 22.9% | 62.3% |  | 64.9% |  |  |
| O=c1c2c(Cl)ccn2nc([C@@H]2CCN2c2ncnc3[nH]cc(C#CCO)c23)n1-c1ccccc1 [Compound 165] | 71.3% | >100% | 1 nM | >100% | 2 nM | 400 nM |
| Nc1ncc(-c2n[nH]c3ncnc(N4CCC[C@H]4c4nn5ccc(Cl)c5c(=O)n4-c4ccccc4)c23)cn1 [Compound 166] | >100% | 97.2% | 1 nM | >100% | 2 nM | 17 nM |
| Nc1ccc(-c2n[nH]c3ncnc(N4CCC[C@H]4c4nn5ccc(Cl)c5c(=O)n4-c4ccccc4)c23)cn1 [Compound 167] | 42.3% | >100% | 5 nM | >100% | 21 nM |  |
| COc1ncc(-c2n[nH]c3ncnc(N4CCC[C@H]4c4nn5ccc(Cl)c5c(=O)n4-c4ccccc4)c23)cn1 [Compound 168] | 98.8% | >100% |  | 95.1% |  |  |
| Nc1ccc(-c2n[nH]c3ncnc(N4CC[C@H]4c4nn5ccc(Cl)c5c(=O)n4-c4ccccc4)c23)cn1 [Compound 169] | −21.1% | 88.0% | 4 nM | 31.2% |  |  |
| COc1ccc(-c2n[nH]c3ncnc(N4CC[C@H]4c4nn5ccc(Cl)c5c(=O)n4-c4ccccc4)c23)cn1 [Compound 170] | 4.6% | 96.1% | 5 nM | 66.5% |  |  |
| Nc1ncc(-c2n[nH]c3ncnc(N4CC[C@H]4c4nn5ccc(Cl)c5c(=O)n4-c4ccccc4)c23)cn1 [Compound 171] | 25.2% | 96.6% | 5 nM | 75.3% | 130 nM |  |
| COc1ncc(-c2n[nH]c3ncnc(N4CC[C@H]4c4nn5ccc(Cl)c5c(=O)n4-c4ccccc4)c23)cn1 [Compound 172] | 38.2% | 99.6% | 2 nM | 79.8% | 297 nM |  |
| N#Cc1ccc(-c2n[nH]c3ncnc(N4CC[C@H]4c4nn5ccc(Cl)c5c(=O)n4-c4ccccc4)c23)cn1 [Compound 173] | 25.7% | 96.3% | 4 nM | 48.7% |  |  |
| CC(Nc1ncnc2[nH]cc(-c3ccc(N)nc3)c12)c1cc2ncc(Cl)n2c(=O)n1-c1ccccc1 (stereo not shown) [Compound 174] | 97.7% | >100% | 1 nM | 94.0% | 31 nM | 23 nM |
| COc1ncc(-c2c[nH]c3ncnc(NC(C)c4cc5ncc(Cl)n5c(=O)n4-c4ccccc4)c23)cn1 (stereo not shown) [Compound 175] | 90.9% | 99.5% | 1 nM | 87.6% | 105 nM | 78 nM |
| Nc1ccc(-c2c[nH]c3ncnc(N4CCOC[C@H]4c4nn5ccc(Cl)c5c(=O)n4-c4ccccc4)c23)cn1 [Compound 176] | 16.8% | 97.1% | 5 nM | 58.3% |  |  |
